Measured values taken from PubChem BioAssay AID330 (DTP/NCI, 2004).
Where “and” joins values, the source holds several entries; their conditions need not be identical. Equal entries are not always repeated. Inconclusive results and toxic doses are left out. How the source made its calls: active means survival T/C of 150% or more; inactive means T/C below 125% in these data.

Test system: P388 leukemia ip, CD2F1 mice, survival T/C
Experiment: NCI In Vivo Anticancer Drug Screen. Data for tumor model P388 Leukemia (intraperitoneal) in CD2F1 (CDF1) mice
Details: endpoint: median survival time, higher = longer survival
Outline: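 Mice carrying the transplanted tumor received test compound or vehicle. Survival was recorded in each group, and the value is the treated-group measurement divided by that of the vehicle-treated control group.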

[1] = dose: 100.0 mg/kg/injection, schedule: Q01DX009 (ip), vehicle: saline with Tween-80
[2] = dose: 200.0 mg/kg/injection, schedule: Q01DX009 (ip), vehicle: saline with Tween-80
[3] = dose: 400.0 mg/kg/injection, schedule: Q01DX009 (ip), vehicle: saline with Tween-80
[4] = dose: 60.0 mg/kg/injection, schedule: Q01DX005 (ip), vehicle: saline with Tween-80
[5] = dose: 120.0 mg/kg/injection, schedule: Q01DX005 (ip), vehicle: saline with Tween-80
[6] = dose: 12.5 mg/kg/injection, schedule: Q01DX009 (ip), vehicle: saline
[7] = dose: 25.0 mg/kg/injection, schedule: Q01DX009 (ip), vehicle: saline with Tween-80
[8] = dose: 50.0 mg/kg/injection, schedule: Q01DX009 (ip), vehicle: saline
[9] = dose: 240.0 mg/kg/injection, schedule: Q01DX005 (ip), vehicle: saline with Tween-80
[10] = dose: 50.0 mg/kg/injection, schedule: Q01DX009 (ip), vehicle: saline with Tween-80
[11] = dose: 60.0 mg/kg/injection, schedule: Q01DX005 (ip), vehicle: Klucel (hydroxypropylcellulose) (HPC)
[12] = dose: 120.0 mg/kg/injection, schedule: Q01DX005 (ip), vehicle: Klucel (hydroxypropylcellulose) (HPC)
[13] = dose: 240.0 mg/kg/injection, schedule: Q01DX005 (ip), vehicle: Klucel (hydroxypropylcellulose) (HPC)

Measured: T/C

O=[N+]([O-])c1ccccc1SSc1ccccc1[N+](=O)[O-]
inactive: [1] 95 % of control | [2] 104 % of control | [3] 100 % of control

CCOC(=O)C1=C(C(=O)c2ccccc2)C(c2ccc(Cl)cc2Cl)C(C(=O)c2ccccc2)=C(C(=O)OCC)N1
inactive: [4] 93 % of control | [5] 90 % of control

Nc1ccc(N=O)c(N)n1
inactive: dose: 0.78 mg/kg/injection, schedule: Q01DX009 (ip), vehicle: saline 98 % of control | dose: 1.56 mg/kg/injection, schedule: Q01DX009 (ip), vehicle: saline 86 % of control | dose: 6.25 mg/kg/injection, schedule: Q01DX009 (ip), vehicle: saline with Tween-80 107 % of control | dose: 12.5 mg/kg/injection, schedule: Q01DX009 (ip), vehicle: saline with Tween-80 98 % of control | [6] 98 % of control | [7] 100 % of control | [8] 106 % of control

c1ccc2c(Cc3csc4ccccc34)csc2c1
inactive: dose: 50.0 mg/kg/injection, schedule: Q01DX005 (ip), vehicle: distilled water + Tween-80 + alcohol 106 % of control | dose: 100.0 mg/kg/injection, schedule: Q01DX005 (ip), vehicle: distilled water + Tween-80 + alcohol 115 % of control | dose: 200.0 mg/kg/injection, schedule: Q01DX005 (ip), vehicle: distilled water + Tween-80 + alcohol 115 % of control

COC(=O)C1(CC(=O)C(C)(C)C)NC(=S)NC(=O)C1C#N (centres undefined)
inactive: dose: 60.0 mg/kg/injection, schedule: Q01DX005 (ip), vehicle: saline 107 % of control | dose: 120.0 mg/kg/injection, schedule: Q01DX005 (ip), vehicle: saline 101 % of control | dose: 240.0 mg/kg/injection, schedule: Q01DX005 (ip), vehicle: saline 97 % of control

Cc1cc(=O)oc2ccc3c(=O)ccoc3c12
inactive: [4] 95 % of control | [5] 96 % of control | [9] 97 % of control

Cc1[nH]c2ccc(N(C)C)cc2c(=O)c1CN1CCN(C)CC1
inactive: [10] 111 % of control | [1] 111 % of control | [2] 110 % of control

COc1ccc(C2OC(=N)C(=S)N2C)cc1O (centres undefined)
inactive: [11] 112 % of control | [12] 109 % of control | [13] 112 % of control

C=C(C)[C@H]1CCC23C[C@@H]4C(C[C@H]2C1(C)CCC(=O)O)C4(C)C3 (some centres undefined)
inactive: dose: 5.5 mg/kg/injection, schedule: Q01DX005 (ip), vehicle: Klucel (hydroxypropylcellulose) (HPC) 100 % of control | dose: 11.0 mg/kg/injection, schedule: Q01DX005 (ip), vehicle: Klucel (hydroxypropylcellulose) (HPC) 106 % of control | dose: 22.0 mg/kg/injection, schedule: Q01DX005 (ip), vehicle: Klucel (hydroxypropylcellulose) (HPC) 100 % of control | dose: 25.0 mg/kg/injection, schedule: Q01DX005 (ip), vehicle: Klucel (hydroxypropylcellulose) (HPC) 91 % of control | dose: 44.0 mg/kg/injection, schedule: Q01DX005 (ip), vehicle: Klucel (hydroxypropylcellulose) (HPC) 100 % of control | dose: 50.0 mg/kg/injection, schedule: Q01DX005 (ip), vehicle: Klucel (hydroxypropylcellulose) (HPC) 100 % of control | dose: 100.0 mg/kg/injection, schedule: Q01DX005 (ip), vehicle: Klucel (hydroxypropylcellulose) (HPC) 91 % of control | dose: 200.0 mg/kg/injection, schedule: Q01DX005 (ip), vehicle: Klucel (hydroxypropylcellulose) (HPC) 91 % of control

CCCN(CCNc1cc(OC)cc2cccnc12)C(C)CC (centres undefined)
inactive: dose: 50.0 mg/kg/injection, schedule: Q01DX005 (ip), vehicle: saline 107 % of control | dose: 100.0 mg/kg/injection, schedule: Q01DX005 (ip), vehicle: saline 92 % of control

[Cl][Pt+2][Cl].[NH-]C(c1ccc(Cl)cc1)C([NH-])c1ccc(Cl)cc1 (centres undefined)
inactive: dose: 6.25 mg/kg/injection, schedule: Q04DX002 (ip), vehicle: saline with Tween-80 124 % of control

CCOc1cc2c(cc1C/C=C/c1ccc(OC)cc1)OCO2
inactive: [4] 103 % of control | [5] 103 % of control | [9] 113 % of control

Cc1nnc(SCC2=C(C(=O)O)N3C(=O)C(NC(=O)Cn4cc(Cl)c(=O)c(Cl)c4)C3SC2)s1 (centres undefined)
inactive: dose: 50.0 mg/kg/injection, schedule: Q01DX009 (ip), vehicle: water 105 % of control | dose: 100.0 mg/kg/injection, schedule: Q01DX009 (ip), vehicle: water 101 % of control | dose: 200.0 mg/kg/injection, schedule: Q01DX009 (ip), vehicle: water 100 % of control

OCC1OC(n2ncc3c(Cl)ccnc32)C(O)C1O (centres undefined)
inactive: dose: 4.0 mg/kg/injection, schedule: Q01DX005 (ip), vehicle: saline with Tween-80 100 % of control | dose: 8.0 mg/kg/injection, schedule: Q01DX005 (ip), vehicle: saline with Tween-80 103 % of control | dose: 16.0 mg/kg/injection, schedule: Q01DX005 (ip), vehicle: saline with Tween-80 97 % of control | dose: 32.0 mg/kg/injection, schedule: Q01DX005 (ip), vehicle: saline with Tween-80 109 % of control | dose: 64.0 mg/kg/injection, schedule: Q01DX005 (ip), vehicle: saline with Tween-80 100 % of control

Fc1cccc(Cl)c1C(Nc1ncccn1)Nc1ncccn1
inactive: [11] 100 % of control | [12] 94 % of control | [13] 88 % of control

Cc1ccc2cccc(OC(=O)Nc3cccc(C(F)(F)F)c3)c2n1
inactive: [11] 101 % of control | [12] 107 % of control | [13] 105 % of control

C=CCCN(c1ccc(C(=O)OCC)cc1)S(=O)(=O)c1ccc(C)cc1
inactive: [7] 100 % of control | [10] 110 % of control | [1] 100 % of control | [2] 108 % of control

CCOC(=O)CCCCc1cccc2ccccc12
inactive: dose: 50.0 mg/kg/injection, schedule: Q01DX009 (ip), vehicle: other 103 % of control | dose: 100.0 mg/kg/injection, schedule: Q01DX009 (ip), vehicle: other 100 % of control | dose: 200.0 mg/kg/injection, schedule: Q01DX009 (ip), vehicle: other 107 % of control

O=C(CCl)NC(Cc1ccccc1)C(=O)O (centres undefined)
inactive: [7] 99 % of control | [10] 99 % of control and 89 % of control | [1] 100 % of control and 104 % of control | [2] 94 % of control | [3] 103 % of control

Cc1nn(C)c(=O)c(N)c1-c1cc(-c2ccc(Cl)cc2)n[nH]1
inactive: [4] 89 % of control | [5] 88 % of control

O=C1OC(c2ccccc2)(c2ccccc2)c2cc3c(cc21)C(=O)OC3(c1ccccc1)c1ccccc1
inactive: dose: 50.0 mg/kg/injection, schedule: Q04DX002 (ip), vehicle: saline 102 % of control | dose: 100.0 mg/kg/injection, schedule: Q04DX002 (ip), vehicle: saline 100 % of control | dose: 200.0 mg/kg/injection, schedule: Q04DX002 (ip), vehicle: saline 98 % of control

CCC1C[N+]2(C)CCc3cc(OC)c(OC)cc3C2CC1=O (centres undefined)
inactive: [6] 94 % of control | dose: 25.0 mg/kg/injection, schedule: Q01DX009 (ip), vehicle: saline 93 % of control | [10] 106 % of control | [8] 100 % of control

COC(=O)c1nc(N)nc(C(=O)OC)c1C(=O)c1cccs1
inactive: [4] 98 % of control | [5] 99 % of control

CCCCC1=C(O)c2ccccc2C(=NC(CO)(CO)CO)C1=O
inactive: dose: 50.0 mg/kg/injection, schedule: Q01DX005 (ip), vehicle: saline with Tween-80 103 % of control | dose: 100.0 mg/kg/injection, schedule: Q01DX005 (ip), vehicle: saline with Tween-80 110 % of control | dose: 200.0 mg/kg/injection, schedule: Q01DX005 (ip), vehicle: saline with Tween-80 100 % of control

Cc1cc(=O)oc2cc3c(cc12)CCCN3
inactive: [11] 101 % of control | [12] 104 % of control | [13] 96 % of control
